Laboratory results reported in US11905274B2, “Receptor inhibitors, pharmaceutical compositions comprising the same and use thereof” (BEIJING TIDE PHARMACEUTICAL CO., LTD., priority 2018, dated 2024).
Where two headings read alike, the source gives them in different places.

Experiments:
[1] = Pharmacokinetic (PK) test in mice; format: in vivo; settings: male ICR mice, plasma; for bioavailability / AUC(0-t) / MRT last / half-life / AUC(0-inf) / Cmax: mouse; for bioavailability: PO 20 mg/kg vs IV 3 mg/kg; for AUC(0-inf): read-out: AUCINF_obs; for Cmax: read-out: C0/Cmax
Protocol: To male ICR mice, the solution of Compound C2 (1 mg/mL) of the present invention and the solution of control Compound A (1 mg/mL) were administered intravenously (IV) and intragastrically (PO), in both of which the vehicle system is DMSO, solutol and deionized water (1:2:17, v:v:v). For Compound C2 and Compound A, the IV and PO dosages were 3 mg/kg and 20 mg/kg, respectively. For IV administration, blood was collected from the ophthalmic venous plexus of the mice at (0) horn before the administration and at 0.083, 0.25, 0.5, 1, 2, 4, 6, 8, and 24 horns after the administration, while for PO administration, blood was collected from ophthalmic venous plexus of the mice at (0) hour before the administration and at 0.25, 0.5, 1, 2, 4, 6, 8, and 24 horns after the administration. For Compound C2, a 0.05 mL blood sample was taken at each time point, while for Compound A, a 0.03 mL blood sample was taken at each time point. The collected blood sample was placed in a clean sample tube containing EDTA-K2 (4%), and centrifuged at 5000 rpm at 4° C. for 5 minutes. The resulting plasma was transferred to another clean sample tube, and stored at −20° C. LC-MS/MS analysis was performed on the plasma samples. The pharmacokinetic parameters were calculated using WinNonlin 6.3 software.

[2] = target: AT1 Receptor (AT1R) (Homo sapiens (Human), UniProt P30556); experiment: Inhibitory activity on AT1 receptor (Tag-lite HTRF, Tb-labeled AT1R cells, angiotensin receptor red agonist); format: binding; settings: 1 h at room temperature
AT1 Receptor (AT1R), sequence (P30556 whole entry): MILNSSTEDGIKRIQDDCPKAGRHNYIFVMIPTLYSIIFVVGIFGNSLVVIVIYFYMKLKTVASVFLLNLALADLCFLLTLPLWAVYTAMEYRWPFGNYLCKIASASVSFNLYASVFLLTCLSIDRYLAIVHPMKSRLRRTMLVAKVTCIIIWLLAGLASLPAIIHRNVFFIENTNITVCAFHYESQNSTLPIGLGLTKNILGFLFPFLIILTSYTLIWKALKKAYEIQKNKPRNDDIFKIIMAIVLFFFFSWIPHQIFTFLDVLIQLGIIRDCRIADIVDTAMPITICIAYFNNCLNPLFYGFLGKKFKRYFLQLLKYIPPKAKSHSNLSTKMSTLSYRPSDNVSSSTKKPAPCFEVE

[3] = target: AT2 Receptor (AT2R) (Homo sapiens (Human), UniProt P50052); experiment: Inhibitory activity on AT2 receptor (Tag-lite HTRF, Tb-labeled AT2R cells, angiotensin receptor red agonist); format: binding; settings: 1 h at room temperature
AT2 Receptor (AT2R), sequence (P50052 whole entry): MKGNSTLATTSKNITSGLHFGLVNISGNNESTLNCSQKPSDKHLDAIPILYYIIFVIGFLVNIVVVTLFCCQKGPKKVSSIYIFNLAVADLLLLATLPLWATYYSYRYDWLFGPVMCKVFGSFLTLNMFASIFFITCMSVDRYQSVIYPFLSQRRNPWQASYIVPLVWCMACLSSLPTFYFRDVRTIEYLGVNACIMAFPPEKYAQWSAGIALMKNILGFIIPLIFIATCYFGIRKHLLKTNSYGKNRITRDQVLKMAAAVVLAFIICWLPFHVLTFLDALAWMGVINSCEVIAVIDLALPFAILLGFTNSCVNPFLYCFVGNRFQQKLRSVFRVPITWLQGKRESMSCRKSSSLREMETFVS

| SMILES | IC50 [2] | IC50 [3] | also measured |
| --- | --- | --- | --- |
| O=C(O)[C@@H]1CN(C(=O)N(c2ccccc2)c2ccccc2)CCN1C(=O)N(c1ccccc1)c1ccccc1 [A, reference compound] | – | – | CL_obs ([1]; IV, 3 mg/kg): 41.8933 mL/min/kg; bioavailability [1]: 6.26%; AUC(0-t) ([1]; IV, 3 mg/kg): 1190 ng·h/mL; MRT last ([1]; IV, 3 mg/kg): 0.29 h; half-life ([1]; IV, 3 mg/kg): 0.5 h; AUC(0-inf) ([1]; IV, 3 mg/kg): 1200 ng·h/mL; Cmax ([1]; IV, 3 mg/kg): 7170 ng/mL; AUC(0-t) ([1]; PO, 20 mg/kg): 495 ng·h/mL; MRT last ([1]; PO, 20 mg/kg): 1.06 h; half-life ([1]; PO, 20 mg/kg): 0.872 h; AUC(0-inf) ([1]; PO, 20 mg/kg): 499 ng·h/mL; Cmax ([1]; PO, 20 mg/kg): 366 ng/mL |
| O=C(O)[C@@H]1CN(C(=O)N2c3ccccc3C=Cc3ccccc32)CCN1C(=O)N(c1ccccc1)c1ccccc1 [Compound C1, (S)-4-(5H-dibenzo[b,f]azepine-5-carbonyl)-1-(diphenylcarbamoyl) piperazine-2-carboxylic acid] | > 10000 nM | 18.8 nM | – |
| O=C(O)[C@@H]1CN(C(=O)N(c2ccccc2)c2ccccc2)CCN1C(=O)N1c2ccccc2C=Cc2ccccc21 [Compound C2, (S)-1-(5H-dibenzo[b,f]azepine-5-carbonyl)-4-(diphenylcarbamoyl) piperazine-2-carboxylic acid] | > 10000 nM | 20.3 nM | CL_obs ([1]; IV, 3 mg/kg): 1.010 mL/min/kg; bioavailability [1]: 45.7%; AUC(0-t) ([1]; IV, 3 mg/kg): 49000 ng·h/mL; MRT last ([1]; IV, 3 mg/kg): 1.9 h; half-life ([1]; IV, 3 mg/kg): 4.51 h; AUC(0-inf) ([1]; IV, 3 mg/kg): 49500 ng·h/mL; Cmax ([1]; IV, 3 mg/kg): 43400 ng/mL; AUC(0-t) ([1]; PO, 20 mg/kg): 151000 ng·h/mL; MRT last ([1]; PO, 20 mg/kg): 2.34 h; half-life ([1]; PO, 20 mg/kg): 3.05 h; AUC(0-inf) ([1]; PO, 20 mg/kg): 151000 ng·h/mL; Cmax ([1]; PO, 20 mg/kg): 62000 ng/mL |
| O=C(O)[C@@H]1CN(C(=O)N2c3ccccc3C=Cc3ccccc32)CCN1C(=O)N1c2ccccc2C=Cc2ccccc21 [Compound C3, (S)-1,4-bis(5H-dibenzo[b,f]azepine-5-carbonyl) piperazine-2-carboxylic acid] | > 10000 nM | 32.5 nM | – |
| O=C(O)[C@@H]1CN(C(=O)C(c2ccccc2)c2ccccc2)CCN1C(=O)N1c2ccccc2C=Cc2ccccc21 [Compound C4, (S)-1-(5H-dibenzo [b,f]azepine-5-carbonyl)-4-(2,2-diphenylacetyl) piperazine-2-carboxylic acid] | > 10000 nM | 45.1 nM | – |
| O=C(O)[C@@H]1CN(C(=O)N2c3ccccc3C=Cc3ccccc32)CCN1C(=O)C(c1ccccc1)c1ccccc1 [Compound C5, (S)-4-(5H-dibenzo [b,f]azepine-5-carbonyl)-1-(2,2-diphenylacetyl) piperazine-2-carboxylic acid] | > 10000 nM | 6.47 nM | – |
| O=C(O)[C@@H]1CN(C(=O)N2c3ccccc3Sc3ccccc32)CCN1C(=O)C(c1ccccc1)c1ccccc1 [Compound C12, (S)-1-(2,2-diphenylacetyl)-4-(10H-phenothiazine-10-carbonyl) piperazine-2-carboxylic acid] | > 10000 nM | 43.7 nM | – |
| O=C(O)[C@@H]1CN(C(=O)N(c2ccccc2)c2ccccc2)CCN1C(=O)N1c2ccccc2Sc2ccccc21 [Compound C20, (S)-4-(diphenylcarbamoyl)-1-(10H-phenothiazine-10-carbonyl)piperazine-2-carboxylic acid] | > 10000 nM | 36.7 nM | – |
| CN(C)S(=O)(=O)NC(=O)[C@@H]1CN(C(=O)N(c2ccccc2)c2ccccc2)CCN1C(=O)N1c2ccccc2C=Cc2ccccc21 [Compound C33, (S)-4-(5H-dibenzo[b,f]azepine-5-carbonyl)-N^3—(N,N-dimethylsulphamoyl)-N^1,N^1-phenylpiperazine-1,3-dicarboxamide] | > 10000 nM | 35.9 nM | – |
| O=C(O)[C@@H]1CN(C(=O)N2c3ccccc3Sc3ccccc32)CCN1C(=O)N(c1ccccc1)c1ccccc1 [Compound C44, (S)-1-(diphenylcarbamoyl)-4-(10H-phenothiazine-10-carbonyl)piperazine-2-carboxylic acid] | > 10000 nM | 62.6 nM | – |
| O=C(O)[C@H]1CN(C(=O)N2c3ccccc3C=Cc3ccccc32)CCN1C(=O)N(c1ccccc1)c1ccccc1 [Compound C45, (R)-4-(5H-dibenzo[b,f]azepine-5-carbonyl)-1-(diphenylcarbamoyl) piperazine-2-carboxylic acid] | > 10000 nM | 55.5 nM | – |
| O=C(O)[C@H]1CN(C(=O)N(c2ccccc2)c2ccccc2)CCN1C(=O)N1c2ccccc2C=Cc2ccccc21 [Compound C46, (R)-1-(5H-dibenzo [b,f]azepine-5-carbonyl)-4-(diphenylcarbamoyl) piperazine-2-carboxylic acid] | > 10000 nM | 54.5 nM | – |
| COC1=Cc2ccccc2N(C(=O)N2CCN(C(=O)N(c3ccccc3)c3ccccc3)C[C@H]2C(=O)O)c2ccccc21 [Compound C50, (S)-4-(diphenylcarbamoyl)-1-(10-methoxy-5H-dibenzo[b,f]azepine-5-carbonyl) piperazine-2-carboxylic acid] | > 10000 nM | – | – |
| O=C1Cc2ccccc2N(C(=O)N2CCN(C(=O)N(c3ccccc3)c3ccccc3)C[C@H]2C(=O)O)c2ccccc21 [Compound C77, (S)-4-(diphenylcarbamoyl)-1-(10-oxo-10,11-dihydro-5H-dibenzo[b,f]azepine-5-carbonyl)piperazine-2-carboxylic acid] | > 10000 nM | 32.3 nM | – |
| O=C(O)[C@@H]1CN(C(=O)N(c2ccccc2)c2ccccc2)CCN1C(=O)C1(c2ccccc2)CCCCC1 [Compound C80, (S)-4-(diphenylcarbamoyl)-1-(1-phenylcyclohexanecarbonyl) piperazine-2-carboxylic acid] | > 10000 nM | 12.7 nM | – |
| O=C(O)[C@@H]1CN(C(=O)C(c2ccccc2)c2ccccc2)CCN1C(=O)C1(c2ccccc2)CCCCC1 [Compound C81, (S)-4-(2,2-diphenylacetyl)-1-(1-phenylcyclohexanecarbonyl) piperazine-2-carboxylic acid] | > 10000 nM | – | – |
| COc1ccccc1N(C(=O)N1CCN(C(=O)N2c3ccccc3CC(=O)c3ccccc32)[C@H](C(=O)O)C1)c1ccccc1OC [Compound C94, (S)-4-(bis(2-methoxylphenyl)carbamoyl)-1-(10-oxo-10,11-dihydro-5H-dibenzo [b,f]azepine-5-carbonyl)piperazine-2-carboxylic acid] | > 10000 nM | – | – |
